Reference: patent US11566056B2, “Peptide and use thereof for treatment of disease of brain and nervous system” (SYLUS CO., LTD, priority 2020, dated 2023)
Where “and” joins values, the source holds several entries; their conditions need not be identical. Equal entries are not always repeated. Ends that are not written are not given here.

Experiments:
[1] = biological target: T1, Soluble mouse EPOR chimera protein (Mus musculus, UniProt P14753); experiment: surface plasmon resonance (SPR) binding to erythropoietin receptor; details: peptide 5, 2.5 and 1.25 μM
T1 construct: Soluble mouse EPOR chimera protein; purchased R&D Systems
T1 sequence (P14753 25-249 limits assumed): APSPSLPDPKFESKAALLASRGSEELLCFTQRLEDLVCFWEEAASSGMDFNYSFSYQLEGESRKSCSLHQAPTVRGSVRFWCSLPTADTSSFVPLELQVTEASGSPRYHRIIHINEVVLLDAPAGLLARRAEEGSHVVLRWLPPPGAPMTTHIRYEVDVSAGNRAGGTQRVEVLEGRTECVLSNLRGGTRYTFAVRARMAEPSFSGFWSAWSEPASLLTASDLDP
Procedure: The SPR technique uses an optical principle to measure the interaction between biomolecules in real time without a specific label, and is a system that analyzes the affinity and kinetics between two molecules, that is, Ka (association rate) and Kd (dissociation rate).
Specifically, the real-time SPR analysis was performed using Reichert SPR Biosensor SR 7500C equipment (Reichert Inc., NY, USA). Receptor mouse EPOR chimera protein (Soluble mouse EPOR chimera protein)(R&D Systems, Minneapolis, Minn., USA) was covalently bonded to a chip (BR-1005-39, Pharmacia Biosensor AB) coated with carboxy methylated dextran matrix by an amine coupling procedure using an amine coupling kit (BR-1000-50, GE Healthcare, USA) according to the manufacturer's manual. Peptides having concentrations of 5, 2.5 and 1.25 μM according to the present disclosure and scrambled peptides were tested by flowing at a flow rate of 5 μl/minute. In addition, the experiment was independently repeated to increase the accuracy. In addition, DMSO was flowed at 5 μl/minute to normalize the signal. After sufficiently inducing the binding of the peptide of an aspect to the receptor, regeneration was induced by injecting 20 μl/minute of 25 mM acetic acid into a sensor chip.

[2] = test system: HT-22 cells; experiment: cell viability under hypoxia-reoxygenation (H/R) conditions; assay type: cell-based; set-up: cell viability under hypoxia-reoxygenation conditions / cell viability under hypoxia-reoxygenation conditions, Average: unit not given here; details: for cell viability under hypoxia-reoxygenation conditions, Average: average of 3; for cell viability under hypoxia-reoxygenation conditions: individual replicate
Procedure: First, the degree of cell viability was confirmed. Specifically, HT-22 cells cultured on a 96-well plate or a 6-well plate for 24 hours were maintained under hypoxic condition for 18 hours in a sealed airtight container of Anaeropack (Mitsubishi Gas Company, Tokyo, Japan). The Anaeropack absorbs oxygen and generates carbon dioxide, thereby inducing a hypoxic environment. Next, reoxygenation was performed at 5% CO2 and 37° C. for 3 hours.
Cell viability was compared when treated with SY-1, SY-2 and SY-3 of H/R cells cultured under low oxygen conditions (Hypoxia) and later cultured under oxygen conditions (Reoxygenation).

Sequence	ka [1]	kd [1]	cell viability under hypoxia-reoxygenation conditions, Average ([2]; 1 uM)	cell viability under hypoxia-reoxygenation conditions ([2]; 1 uM)	cell viability under hypoxia-reoxygenation conditions, Average ([2]; 2.5 uM)	cell viability under hypoxia-reoxygenation conditions ([2]; 2.5 uM)	cell viability under hypoxia-reoxygenation conditions, Average ([2]; 5 uM)	cell viability under hypoxia-reoxygenation conditions ([2]; 5 uM)	cell viability under H/R conditions (in words) ([2]; hypoxia 18 hours, reoxygenation 3 hours)
LQLHVLKAVAGLRTLTMIRRALA [SY-3]	25.6240	0.0554	0.726	0.722 and 0.736 and 0.719	0.735	0.739 and 0.741 and 0.724	0.727	0.707 and 0.732 and 0.741	the cell viability was the highest
LQLHVLKAVSGLRTLTTLLRALG [SY-1]	31.5970	0.0446	0.654	0.662 and 0.657 and 0.644	0.655	0.649 and 0.663 and 0.652	0.647	0.648 and 0.653 and 0.641	
LQLHVLKAVSGLRTLTMIRRALG [SY-2]	32.5770	0.0506	0.671	0.658 and 0.673 and 0.682	0.676	0.671 and 0.667 and 0.689	0.661	0.652 and 0.677 and 0.655	
